Measurements reported in patent publication US20240002846A1, “COMPOSITIONS AND METHODS FOR THE DIAGNOSIS AND TREATMENT OF ITCH” (Duke University, priority 2020, published 2024).
“Also recorded” adds a separate entry of the source.

Tests used:
mice = assay: Scratching behavior after i.d. injection into dorsal neck skin; format: in vivo, mouse; settings: i.d. into dorsal neck, LPA 18:1 500 μg, LPC 50-500 μg, LPC species at the same dose
Experimental: Behavioral assessment. Mice were shaved at the dorsal neck 1 d before experiments. Mice were allowed to acclimate to a Plexiglas chamber for at least 30 min before testing and received intradermal (i.d.) injection of 50 μL of LPA 18:1, LPC, LPC 14:0, LPC 16:0, LPC 18:0, LPC 18:1, miR-146a mimic, miR-146a scramble, ATP or vehicles through a 30-gauge needle (Becton Dickinson, Franklin Lakes, NJ) into the neck skin. After injections, mice were immediately placed back to the chamber, and the scratching behavior was recorded by a Panasonic video camera for 30 min. Hind limb scratching behavior directed toward the injected area at the nape of neck was observed. One scratch is defined as a lifting of the hind limb toward the injection site and then a replacing of the limb back to the floor, regardless of how many scratching strokes take place between those two movements. Behavioral analysis was conducted by observers blinded to genotype.

hTRPV4 = biological target: T1, hTRPV4 (Homo sapiens, UniProt Q9HBA0); assay: Inside-out patch-clamp, hTRPV4; format: biochemical; settings: 5 μM LPC 18:1; WT-hTRPV4
T1 construct: expressed in transfected cells; host or cells: HEK293 (ATCC CRL-1573)
Experimental: (§1) Cell culture and transfection. HEK293 cells (ATCC® CRL-1573) were cultured on poly-D-lysine coated coverslips in 24-well plate containing DMEM media with high-Glucose (Gibco, Gaithersburg, MD) supplemented with 10% fetal bovine serum (FBS, HyClone Laboratories, Logan, UT) and 100 U/mL of penicillin/streptomycin (Gibco, Gaithersburg, MD). Cell cultures were maintained with 5% of CO2 in a humidified incubator at 37° C. HEK cells were transfected with rat or human wild type or mutant TRPV4 channels with EGFP or YFP coupled to their C-termini (1.5 μg of plasmid for excised patch clamp and Ca^2+ imaging and 200 ng for single-channel experiments). […]
(§2) Electrophysiology. Currents were recorded using the inside-out configuration of the patch-clamp technique (Hamill et al. Pflugers Arch. 1981, 391, 85-100). […] Mean current values in response to GSK1016790A or LPC 18:1 were measured after channel activation had reached the steady-state (˜3 min). […] Currents were low-pass filtered at 2 kHz and sampled at 10 kHz with an EPC 10 amplifier (HEKA Elektronik) and were plotted and analyzed with Igor Pro (Wavemetrics Inc.).

hTRPV4-R269H = biological target: T2, hTRPV4-R269H (Homo sapiens, UniProt Q9HBA0, R269H); assay: Inside-out patch-clamp, hTRPV4-R269H; format: biochemical; settings: 5 μM LPC 18:1
T2 construct: expressed in transfected cells; host or cells: HEK293
Experimental: as §1, §2

[1] = system: vesicular release from mKC; assay: Vesicular release from cultured mouse keratinocytes (AChE activity); format: cell-based; settings: 10 μM
Experimental: Vesicular release from cultured keratinocytes was quantified by detecting acetylcholinesterase (AChE) activity in the extracellular release fluid. (Gupta et al. Am. J. Physiol. Heart Circ. Physiol. 2007, 292, H3052-3056; Malik et al. Methods Mol. Biol. 2016, 1448, 237-248). CBQCA Protein Quantitation Kit (Molecular Probes, Eugene, OR) was used to assess the total protein amounts of each sample. Quantitation was carried out according to kit instructions (Fluorocet, Systems Biosciences, Palo Alto, CA). Briefly, vesicles were lysed to release esterase enzyme whose activity is measured using a florescence dye, excitation at 544 nm and emission at 590 nm. Fluostar Optima (BMG Labtech, Cary, NC) microplate reader was used to measure esterase activity. 500 ng protein equivalent of input was used per well. To determine the contribution of Rab5a and Rab27a to LPC-induced miR-146a release, cells were pre-treated with the Rab5a (5′-GUAGAAUCAA GUUUCUAAUUCUGAA-3′ SEQ ID NO: 9, 5′-[…]-3′ SEQ ID NO: 10) or Rab27a (5′-AGCUAAAA CUGAGAGCUUCAAACAG-3′ SEQ ID NO: 11, 5′-[…]-3′ SEQ ID NO: 12) siRNA (IDT, Coralville, IA) for 72 h before stimulation. Control cells were treated with scramble siRNA.

T2 sequence (Q9HBA0 whole entry R269H): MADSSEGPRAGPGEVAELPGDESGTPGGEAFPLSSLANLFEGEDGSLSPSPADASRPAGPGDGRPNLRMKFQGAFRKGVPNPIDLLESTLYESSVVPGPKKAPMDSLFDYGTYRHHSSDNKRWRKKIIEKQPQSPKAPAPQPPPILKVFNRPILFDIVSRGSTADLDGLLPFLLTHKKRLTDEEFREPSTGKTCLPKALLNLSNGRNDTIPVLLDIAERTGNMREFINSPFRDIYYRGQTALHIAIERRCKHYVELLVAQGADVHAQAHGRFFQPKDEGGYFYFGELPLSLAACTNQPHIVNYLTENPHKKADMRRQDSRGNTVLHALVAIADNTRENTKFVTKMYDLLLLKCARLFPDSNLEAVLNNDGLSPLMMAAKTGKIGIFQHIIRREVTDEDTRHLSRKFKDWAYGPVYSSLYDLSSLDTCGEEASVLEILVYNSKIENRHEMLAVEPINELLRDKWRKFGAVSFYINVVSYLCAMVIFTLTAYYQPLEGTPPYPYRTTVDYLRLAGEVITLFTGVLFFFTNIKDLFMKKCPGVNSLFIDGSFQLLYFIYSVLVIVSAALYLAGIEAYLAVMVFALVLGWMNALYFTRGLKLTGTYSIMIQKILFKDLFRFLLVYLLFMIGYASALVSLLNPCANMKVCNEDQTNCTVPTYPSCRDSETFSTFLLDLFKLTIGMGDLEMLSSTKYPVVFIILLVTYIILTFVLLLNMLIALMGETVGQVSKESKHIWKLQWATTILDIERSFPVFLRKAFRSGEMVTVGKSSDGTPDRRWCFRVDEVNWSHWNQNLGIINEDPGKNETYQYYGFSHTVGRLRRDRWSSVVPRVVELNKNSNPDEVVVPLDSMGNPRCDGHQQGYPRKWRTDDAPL
T1 sequence (Q9HBA0 whole entry): as the sequence (Q9HBA0 whole entry R269H) above, with H269R counted along it

Row | Compound | scratching behavior (itch) induced by i.d. injection of lipid (mice) | scratching behavior (itch) induced by i.d. injection of lipid (mice; listed as LPC (18:1)) | average activation of currents, normalized to 1 μM GSK101 (hTRPV4) [%] | average activation of currents, normalized to 1 μM GSK101 (hTRPV4-R269H) [%] | effect of U0126 on LPC-induced vesicular release [1]
1 | LPC 18:1 | caused robust itch; also recorded: most potent | the most potent | 48±6 | 42±6 | –
2 | N#CC(=C(/N)Sc1ccccc1N)/C(C#N)=C(\N)Sc1ccccc1N [U0126] | – | – | – | – | completely eliminated
